{"source": "paper PMC12867150", "about": "“A fungi-derived cyclic peptide enhances Th9-mediated antitumor immunity by targeting ZAP70 and SREBP1” (The Journal of Clinical Investigation, 2025)", "tested_on": "transferred CD45.1+ OT-II Th9 cells", "assay": "Flow cytometry of transferred CD45.1+ OT-II Th9 cells in spleen, LN, tumor (Figure 2B-C, S1C-E)", "assay_type": "in vivo, mouse", "details": "for Frequencies of transferred CD45.1⁺ OT-II Th9 cells among CD45⁺ cells in LN: Supplemental Figure 1D left; for number of transferred CD45.1⁺ OT-II Th9 cells among CD45⁺ cells in LN: Supplemental Figure 1D right; for CD45.1+ gate number: representative flow plot", "method": "C57BL/6 mice were subcutaneously injected with 5 × 10^5 B16-OVA melanoma cells. Five days after tumor implantation, mice received an intravenous infusion of 2 × 10^6 in vitro–differentiated Th9 cells (cultured for 5 days), which were derived from OT-II CD45.1 donor mice, accompanied by 4 × 10^5 OVA peptide–pulsed DCs via the tail vein. To enhance T cell engraftment and facilitate lymphodepletion, a single intraperitoneal injection of cyclophosphamide (200 mg/kg, Sigma, catalog C0768) was administered 1 day prior to T cell transfer. Mice were euthanized at designated time points for the collection and analysis of spleens, tumor-draining lymph nodes, and tumor tissues.\nDetails regarding staining panels (human and mouse), reagents (including clones and catalog numbers), acquisition settings, compensation/controls, and analysis procedures are provided in Supplemental Methods.\nBioLegend, Cat. No. 422301 or Mouse TruStain FcX™, BioLegend, Cat. No. 101319) for 10 minutes at 4°C. For surface marker detection, cells were stained with fluorochrome-conjugated monoclonal antibodies in 96-well V-bottom plates and incubated on ice for 30 minutes. After staining, cells were washed twice and resuspended in FACS buffer for analysis.\nPrior to intracellular cytokine staining, cells were restimulated for 4 hours with PMA (Absin, Cat. No. abs9107), ionomycin (Sigma-Aldrich, Cat. No. I0634), and brefeldin A (MedChemExpress, Cat. No. HY-16592). For intracellular cytokine staining, cells were first surface-stained as described above, then fixed and permeabilized using the BD Cytofix/Cytoperm™ kit (BD Biosciences, Cat. No. 554714) according to the manufacturer ’s protocol. Intracellular proteins were stained with directly conjugated antibodies targeting IL-9, IL-17a, IL-4, IFN-γ, TNF-α, FOXP3, p-ZAP70, Perforin, and […]\nAntibodies used for mouse samples included those against IL-9 (PE, clone RM9A4, Biolegend, Cat. No. 514104), IFN-γ (PE, clone XMG1.2, Biolegend, Cat. No.\nCat. No. 103138), CD4 (APC/Cy7, clone E-AB-F1353UJ, Elabscience, Cat. No.\nAF18028), CD8α (PerCP/Cy5.5, clone E-AB-F1104UJ, Elabscience, Cat. No. […]\nclone E-AB-F1187UH, Elabscience, Cat. No. AF19854), TNF-α (BV421, clone MP6-XT22, Biolegend, Cat. No. 506328), FOXP3 (PE, clone FJK-16s, eBioscience, Cat. No.\nPerforin (APC, clone S16009A, Biolegend, Cat. No. 154303) and Granzyme B (APC, […]\nclone QA16A02, Biolegend, Cat. No. 372203). […]\nFigure S1. EpA enhances immune responses. […]\nRepresentative flow-cytometric plots showing transferred CD45.1⁺ OT-II Th9 cells in spleens (C), tumor-draining lymph nodes (LNs) (D), and tumors (E); frequencies Figure S1 and absolute numbers of CD45.1⁺ OT-II Th9 cells in LNs are quantified in (D). (F– […]\nStatistical analysis was performed using two-way ANOVA with Tukey’s post hoc test (A), one-way ANOVA with Tukey’s post hoc test (B) or two-tailed unpaired Student’s t-test (D and G–M). ns, not significant. *p < 0.05, **p < 0.01, ****p < 0.0001.\n(also on this page, place not known: Mouse weight (g) CtrlEpA CtrlEpA CtrlEpA0 I CD45.1+ T cells (%) CtrlEpA CD4+ T cells (%) CtrlEpA CtrlEpA CtrlEpA FSC CD8 CD8 FSC FSC FSC BNumber of CD45.1+ T cells (×103 per mgĎ Number of CD4+ T cells (×104 per mgĎ DC (%)NK cells (%) NK cells (%) DC (%) Number of DC (×103 per mg) Number of NK cells (×105) Number of NK cells (×103 per mg) Number of DC (×105) FSC FSC FSC CD8 CtrlEpA CtrlEpA CtrlEpA CD8+ T cells (%) Number of CD8+ T cells (×104 per mgĎ nsns ns nsns ns 40 IL-6 (pg/ml)) […]", "key": {"[1]": {"details": "spleens, individual mice, n = 4"}}, "note": "Where “and” joins values, the source holds several entries; their conditions need not be identical. Equal values may be shown once.", "data": [{"substance": "anteiso-C15 Leu7 surfactin [EpA]", "values": [{"measurement": "Frequencies of transferred CD45.1⁺ OT-II Th9 cells among CD45⁺ cells in LN", "setting": "LN, replicate 1", "value": 25.5, "unit": "%"}, {"measurement": "Frequencies of transferred CD45.1⁺ OT-II Th9 cells among CD45⁺ cells in LN", "setting": "LN, replicate 2", "value": 16.2, "unit": "%"}, {"measurement": "Frequencies of transferred CD45.1⁺ OT-II Th9 cells among CD45⁺ cells in LN", "setting": "LN, replicate 3", "value": 15.5, "unit": "%"}, {"measurement": "Frequencies of transferred CD45.1⁺ OT-II Th9 cells among CD45⁺ cells in LN", "setting": "LN, replicate 4", "value": 16.6, "unit": "%"}, {"measurement": "number of transferred CD45.1⁺ OT-II Th9 cells among CD45⁺ cells in LN", "setting": "LN, replicate 1", "value": 12444.4}, {"measurement": "number of transferred CD45.1⁺ OT-II Th9 cells among CD45⁺ cells in LN", "setting": "LN, replicate 2", "value": 12569.8}, {"measurement": "number of transferred CD45.1⁺ OT-II Th9 cells among CD45⁺ cells in LN", "setting": "LN, replicate 3", "value": 11818.2}, {"measurement": "number of transferred CD45.1⁺ OT-II Th9 cells among CD45⁺ cells in LN", "setting": "LN, replicate 4", "value": 11251.4}, {"measurement": "CD45.1+ gate number", "setting": "LN, Figure S1D", "value": 15.5, "unit": "%"}, {"measurement": "CD45.1+ gate number", "setting": "Spleen, Figure S1C", "value": 11.7, "unit": "%"}, {"measurement": "CD45.1+ gate number", "setting": "Tumor, Figure S1E", "value": 6.7, "unit": "%"}, {"measurement": "expansion of transferred cells", "setting": "lymph nodes, result in words", "value": "moderately in the lymph nodes"}, {"measurement": "expansion of transferred cells", "setting": "spleen, result in words", "value": "expanded robustly in the spleen"}, {"measurement": "Total CD45.1(%) among CD45+ cells", "setting": "[1]", "value": "11.1% and 9.13% and 7.88% and 11.8%"}, {"measurement": "number of CD45.1+ T cells", "setting": "[1]", "value": "854404 and 834158 and 848241 and 1565169"}, {"measurement": "CD45.1 (%) among CD4+ cells", "setting": "tumors, individual mice, n = 4", "value": "6.68% and 1.49% and 0.81% and 0.8%"}, {"measurement": "number of CD45.1+ OT-II Th9 cells", "setting": "tumors, individual mice, n = 4", "value": "16 and 22 and 24 and 15"}, {"measurement": "absolute number of transferred cells", "setting": "tumors, result in words", "value": "markedly increased"}, {"measurement": "frequency of transferred cells", "setting": "tumors, result in words", "value": "remained comparable"}]}]}
